These results are taken from patent US11180474B2 (BRISTOL-MYERS SQUIBB COMPANY, priority 2016, dated 2021).

Experiment [1] concerns the target T1, human TLR8 (Homo sapiens, UniProt Q9NR97).
T1 construct: host or cells: HEK-Blue cells
T1 sequence (Q9NR97 27-1041): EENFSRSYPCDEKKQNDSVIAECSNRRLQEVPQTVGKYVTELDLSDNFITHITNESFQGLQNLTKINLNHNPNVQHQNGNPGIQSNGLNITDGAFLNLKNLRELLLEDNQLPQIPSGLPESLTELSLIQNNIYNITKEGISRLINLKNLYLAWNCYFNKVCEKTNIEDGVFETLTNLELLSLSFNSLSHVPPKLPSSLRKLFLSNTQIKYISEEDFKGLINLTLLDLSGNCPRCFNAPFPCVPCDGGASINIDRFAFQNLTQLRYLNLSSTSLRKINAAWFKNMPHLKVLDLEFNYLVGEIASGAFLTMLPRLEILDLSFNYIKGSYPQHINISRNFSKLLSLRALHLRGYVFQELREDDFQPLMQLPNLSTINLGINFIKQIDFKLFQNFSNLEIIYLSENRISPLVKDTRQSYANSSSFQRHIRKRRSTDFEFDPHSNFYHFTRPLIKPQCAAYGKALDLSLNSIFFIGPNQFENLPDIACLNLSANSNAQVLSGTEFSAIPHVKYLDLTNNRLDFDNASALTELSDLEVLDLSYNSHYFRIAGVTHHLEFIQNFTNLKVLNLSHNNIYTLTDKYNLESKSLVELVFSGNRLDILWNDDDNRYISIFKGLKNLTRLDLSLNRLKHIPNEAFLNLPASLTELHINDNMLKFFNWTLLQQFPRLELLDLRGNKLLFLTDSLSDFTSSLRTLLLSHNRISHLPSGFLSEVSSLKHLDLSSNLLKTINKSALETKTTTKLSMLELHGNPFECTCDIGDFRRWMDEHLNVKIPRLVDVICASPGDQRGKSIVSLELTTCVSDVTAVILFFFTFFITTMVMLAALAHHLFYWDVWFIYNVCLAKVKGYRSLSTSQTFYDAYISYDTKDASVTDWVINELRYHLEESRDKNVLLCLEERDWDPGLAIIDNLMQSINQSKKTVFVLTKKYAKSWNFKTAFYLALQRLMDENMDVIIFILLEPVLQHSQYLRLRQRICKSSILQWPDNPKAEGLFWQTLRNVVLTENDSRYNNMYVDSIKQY
Nature of the experiment: TLR8 inhibition reporter assay (HEK-Blue cells, SEAP reporter, R848 stimulation). In kind it is cell-based. Conditions: HEK-Blue cells overexpressing human TLR8, R848 15.9 μM. The procedure, abridged:
(§1)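 Dose-response testing from 0.05 nM to 50 μM final was done on reporter cells for 22 hours at 37° C. Secreted SEAP was then detected, and inhibition was calculated as percent reduction of the agonist-plus-DMSO signal compared with wells given a known inhibitor.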
For orientation: In a reporter assay the amount or activity of a reporter protein is the signal.

Experiment [2] has as its target T2, human TLR7 (Homo sapiens, UniProt Q9NYK1).
T2 construct: host or cells: HEK-Blue cells
T2 sequence (Q9NYK1 27-1049): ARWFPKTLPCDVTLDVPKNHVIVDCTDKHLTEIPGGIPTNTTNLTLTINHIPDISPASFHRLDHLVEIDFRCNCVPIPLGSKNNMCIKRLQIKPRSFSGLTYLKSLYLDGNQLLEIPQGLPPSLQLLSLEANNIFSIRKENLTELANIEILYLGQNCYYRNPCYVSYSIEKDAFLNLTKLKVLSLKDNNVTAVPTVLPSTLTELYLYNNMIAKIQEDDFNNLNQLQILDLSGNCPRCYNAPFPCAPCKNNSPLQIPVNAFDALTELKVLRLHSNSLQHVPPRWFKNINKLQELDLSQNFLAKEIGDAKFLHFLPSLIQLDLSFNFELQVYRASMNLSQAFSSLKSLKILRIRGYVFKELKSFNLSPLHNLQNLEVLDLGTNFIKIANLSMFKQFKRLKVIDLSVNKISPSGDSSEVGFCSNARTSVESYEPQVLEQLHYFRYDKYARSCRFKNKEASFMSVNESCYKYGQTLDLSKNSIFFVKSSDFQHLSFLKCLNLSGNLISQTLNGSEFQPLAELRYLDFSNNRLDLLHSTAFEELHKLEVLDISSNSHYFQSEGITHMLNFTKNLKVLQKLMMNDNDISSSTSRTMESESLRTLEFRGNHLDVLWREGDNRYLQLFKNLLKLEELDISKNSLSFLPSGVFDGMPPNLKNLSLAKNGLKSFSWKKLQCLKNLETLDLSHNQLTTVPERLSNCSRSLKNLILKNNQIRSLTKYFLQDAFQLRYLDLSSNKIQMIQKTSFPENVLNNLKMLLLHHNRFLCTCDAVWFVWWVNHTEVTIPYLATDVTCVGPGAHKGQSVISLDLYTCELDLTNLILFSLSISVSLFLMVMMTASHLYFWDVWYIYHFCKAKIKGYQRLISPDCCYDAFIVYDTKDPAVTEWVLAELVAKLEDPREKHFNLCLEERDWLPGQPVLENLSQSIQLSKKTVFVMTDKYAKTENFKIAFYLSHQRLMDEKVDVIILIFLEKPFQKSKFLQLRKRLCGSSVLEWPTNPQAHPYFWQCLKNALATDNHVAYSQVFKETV
Nature of the experiment: TLR7 inhibition reporter assay (HEK-Blue cells, SEAP reporter, gardiquimod stimulation). In kind it is cell-based. The note with it: HEK-Blue cells overexpressing human TLR7, gardiquimod 7.5 μM. The procedure, abridged: as §1

As a reminder, the pIC50 is −log10 of the IC50, conventionally taken in molar units.

The structures appear in SMILES notation. pIC50: −log10 of the molar value.

Take `COc1ccc(-c2[nH]c3ccc(C4CCN(C(=O)CCN(C)C)CC4)cc3c2CC(F)(F)F)cc1OC` [Example 340, 1-(4-(2-(3,4-dimethoxyphenyl)-3-(2,2,2-trifluoroethyl)-1H-indol-5-yl)piperidin-1-yl)-3-(dimethylamino)propan-1-one]: the pIC50 was 7.49 in experiment [1] and 7.66 in experiment [2].

As for `COc1ccc(-c2[nH]c3ccc(C4CCN(C(=O)Cc5nnn[nH]5)CC4)cc3c2CC(F)(F)F)cc1OC` [Example 341, 1-(4-(2-(3,4-dimethoxyphenyl)-3-(2,2,2-trifluoroethyl)-1H-indol-5-yl)piperidin-1-yl)-2-(1H-tetrazol-5-yl)ethan-1-one], the pIC50 in experiment [1] was 5.03; in experiment [2] it was 5.30.

`COc1ccc(-c2[nH]c3ccc(C4CCN(C(=O)Cc5cnccn5)CC4)cc3c2CC(F)(F)F)cc1OC` [Example 342, 1-(4-(2-(3,4-dimethoxyphenyl)-3-(2,2,2-trifluoroethyl)-1H-indol-5-yl)piperidin-1-yl)-2-(pyrazin-2-yl)ethan-1-one]: the pIC50 in experiment [1] was 6.23; in experiment [2], 6.62.

Consider `COc1ccc(-c2[nH]c3ccc(C4CCN(C(=O)CCCNC(C)=O)CC4)cc3c2CC(F)(F)F)cc1OC` [Example 343, N-(4-(4-(2-(3,4-dimethoxyphenyl)-3-(2,2,2-trifluoroethyl)-1H-indol-5-yl)piperidin-1-yl)-4-oxobutyl)acetamide], for which the pIC50 in experiment [1] is 6.43; in experiment [2], 6.76.

In the case of `COc1ccc(-c2[nH]c3ccc(C4CCN(C(=O)CCn5cccc5)CC4)cc3c2CC(F)(F)F)cc1OC` [Example 344, 1-(4-(2-(3,4-dimethoxyphenyl)-3-(2,2,2-trifluoroethyl)-1H-indol-5-yl)piperidin-1-yl)-3-(1H-pyrrol-1-yl)propan-1-one], the values for the pIC50 in experiment [1] and in experiment [2] were 5.85 and 6.06, respectively.

Consider `COc1ccc(-c2[nH]c3ccc(C4CCN(C(=O)C5CCN(C(C)=O)CC5)CC4)cc3c2CC(F)(F)F)cc1OC` [Example 345, 1-(4-(4-(2-(3,4-dimethoxyphenyl)-3-(2,2,2-trifluoroethyl)-1H-indol-5-yl)piperidine-1-carbonyl)piperidin-1-yl)ethan-1-one], for which the pIC50 in experiment [1] is 5.99; in experiment [2] it was 6.59.

Turning to `COc1ccc(-c2[nH]c3ccc(C4CCN(C(=O)CCC(=O)N(C)C)CC4)cc3c2CC(F)(F)F)cc1OC` [Example 346, 4-(4-(2-(3,4-dimethoxyphenyl)-3-(2,2,2-trifluoroethyl)-1H-indol-5-yl)piperidin-1-yl)-N,N-dimethyl-4-oxobutanamide], the values for the pIC50 in experiment [1] and in experiment [2] were 6.28 and 6.67, respectively.

On to `COc1ccc(-c2[nH]c3ccc(C4CCN(C(=O)CS(C)(=O)=O)CC4)cc3c2CC(F)(F)F)cc1OC` [Example 347, 1-(4-(2-(3,4-dimethoxyphenyl)-3-(2,2,2-trifluoroethyl)-1H-indol-5-yl)piperidin-1-yl)-2-(methylsulfonyl)ethan-1-one], for which the pIC50 in experiment [1] was 6.12; in experiment [2], 6.81.

With `COc1ccc(-c2[nH]c3ccc(C4CCN(C(=O)CCc5cccnc5)CC4)cc3c2CC(F)(F)F)cc1OC` [Example 348, 1-(4-(2-(3,4-dimethoxyphenyl)-3-(2,2,2-trifluoroethyl)-1H-indol-5-yl)piperidin-1-yl)-3-(pyridin-3-yl) propan-1-one], the pIC50 is 5.85 in experiment [1] and 6.38 in experiment [2].

On to `COc1ccc(-c2[nH]c3ccc(C4CCN(C(=O)COc5cccnc5)CC4)cc3c2CC(F)(F)F)cc1OC` [Example 349, 1-(4-(2-(3,4-dimethoxyphenyl)-3-(2,2,2-trifluoroethyl)-1H-indol-5-yl)piperidin-1-yl)-2-(pyridin-3-yloxy)ethan-1-one], for which the pIC50 in experiment [1] was 6.17; in experiment [2], 6.54.

Regarding `COc1ccc(-c2[nH]c3ccc(C4CCN(C(=O)CCC(F)(F)F)CC4)cc3c2CC(F)(F)F)cc1OC` [Example 350, 1-(4-(2-(3,4-dimethoxyphenyl)-3-(2,2,2-trifluoroethyl)-1H-indol-5-yl)piperidin-1-yl)-4,4,4-trifluorobutan-1-one], the values for the negative-log IC50 (pIC50) in experiment [1] and in experiment [2] were 5.69 and 6.20, respectively.

Turning to `COc1ccc(-c2[nH]c3ccc(C4CCN(C(=O)CCCN(C)C)CC4)cc3c2CC(F)(F)F)cc1OC` [Example 351, 1-(4-(2-(3,4-dimethoxyphenyl)-3-(2,2,2-trifluoroethyl)-1H-indol-5-yl)piperidin-1-yl)-4-(dimethylamino)butan-1-one], the pIC50 in experiment [1] was 7.24; in experiment [2], 7.77.

`COc1ccc(-c2[nH]c3ccc(C4CCN(C(=O)C[C@H](C)O)CC4)cc3c2CC(F)(F)F)cc1OC` [Example 352, (S)-1-(4-(2-(3,4-dimethoxyphenyl)-3-(2,2,2-trifluoroethyl)-1H-indol-5-yl)piperidin-1-yl)-3-hydroxybutan-1-one]: the results for the pIC50 in experiment [1] and in experiment [2] were 6.12 and 6.34, respectively.

For the compound `COc1ccc(-c2[nH]c3ccc(C4CCN(C(=O)C[C@@H](C)O)CC4)cc3c2CC(F)(F)F)cc1OC` [Example 353, (R)-1-(4-(2-(3,4-dimethoxyphenyl)-3-(2,2,2-trifluoroethyl)-1H-indol-5-yl)piperidin-1-yl)-3-hydroxybutan-1-one], the pIC50 in experiment [1] is 6.02; in experiment [2] it was 6.64.

Regarding `COc1ccc(-c2[nH]c3ccc(C4CCN(C(=O)CN(C)C)CC4)cc3c2CC(F)(F)F)cc1OC` [Example 354, 1-(4-(2-(3,4-dimethoxyphenyl)-3-(2,2,2-trifluoroethyl)-1H-indol-5-yl)piperidin-1-yl)-2-(dimethylamino)ethan-1-one], the results for the pIC50 in experiment [1] and in experiment [2] were 7.09 and 7.66, respectively.

Turning to `COc1ccc(-c2[nH]c3ccc(C4CCN(C)CC4)cc3c2CC(F)(F)F)cc1OC` [Example 355, 2-(3,4-dimethoxyphenyl)-5-(1-methylpiperidin-4-yl)-3-(2,2,2-trifluoroethyl)-1H-indole], the pIC50 was 7.39 in experiment [1] and 7.72 in experiment [2].

As to `CCNC(=O)N1CCC(c2ccc3[nH]c(-c4ccc(OC)c(OC)c4)c(CC(F)(F)F)c3c2)CC1` [Example 356, 4-(2-(3,4-dimethoxyphenyl)-3-(2,2,2-trifluoroethyl)-1H-indol-5-yl)-N-ethylpiperidine-1-carboxamide], the pIC50 in experiment [1] is 6.20; in experiment [2] it was 6.21.

As to `COc1ccc(-c2[nH]c3ccc(C4CCN(C(=O)NCCc5ccccc5)CC4)cc3c2CC(F)(F)F)cc1OC` [Example 357, 4-(2-(3,4-dimethoxyphenyl)-3-(2,2,2-trifluoroethyl)-1H-indol-5-yl)-N-phenethylpiperidine-1-carboxamide], the pIC50 in experiment [1] was 6.03; in experiment [2] it was 6.16.
